The target of this test is T1, human Werner helicase (WRN-BV08, Uniprot Q14191, amino acids 517-1235 with L1074F point mutation) (Homo sapiens, UniProt Q14191, L1074F).
T1 construct: Uniprot Q14191, amino acids 517-1235 with L1074F point mutation; TEV-cleavable 8×His (C, cleaved yes); made in house; host or cells: Sf9 insect cells (baculovirus)
Put plainly: WRN (BV08) ADP-Glo Assay. It is filed as biochemical. The settings on record: 0.15 nM WRN, 5 μM ATP, 0.1 nM DNA duplex, 15 min preincubation, 60 min at 25° C., pH 7.5, 1% DMSO; read-out: ADP-Glo_hWRN_IC50. The method, boiled down:
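WRN 0.15 nM + cpd, 15 min 25 °C; add 5 μM ATP / 0.1 nM annealed DNA duplex; 60 min 25 °C; ADP-Glo stop, RLU. Buffer 20 mM Bicine pH 7.5, 1 mM MgCl2, 10 mM KCl, 1 mM TCEP. IC50, 4-parameter fit.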

pIC50: −log10 of the molar value.

Results on 22 compounds are retold here after patent US20260297070A1, “CYCLIC [COMPOUND LEFT OUT] WRN INHIBITORS” (Nimbus Wadjet, Inc., priority 2023, published 2026).

T1 sequence (Q14191 with tags, fused parts or gaps L1074F limits assumed): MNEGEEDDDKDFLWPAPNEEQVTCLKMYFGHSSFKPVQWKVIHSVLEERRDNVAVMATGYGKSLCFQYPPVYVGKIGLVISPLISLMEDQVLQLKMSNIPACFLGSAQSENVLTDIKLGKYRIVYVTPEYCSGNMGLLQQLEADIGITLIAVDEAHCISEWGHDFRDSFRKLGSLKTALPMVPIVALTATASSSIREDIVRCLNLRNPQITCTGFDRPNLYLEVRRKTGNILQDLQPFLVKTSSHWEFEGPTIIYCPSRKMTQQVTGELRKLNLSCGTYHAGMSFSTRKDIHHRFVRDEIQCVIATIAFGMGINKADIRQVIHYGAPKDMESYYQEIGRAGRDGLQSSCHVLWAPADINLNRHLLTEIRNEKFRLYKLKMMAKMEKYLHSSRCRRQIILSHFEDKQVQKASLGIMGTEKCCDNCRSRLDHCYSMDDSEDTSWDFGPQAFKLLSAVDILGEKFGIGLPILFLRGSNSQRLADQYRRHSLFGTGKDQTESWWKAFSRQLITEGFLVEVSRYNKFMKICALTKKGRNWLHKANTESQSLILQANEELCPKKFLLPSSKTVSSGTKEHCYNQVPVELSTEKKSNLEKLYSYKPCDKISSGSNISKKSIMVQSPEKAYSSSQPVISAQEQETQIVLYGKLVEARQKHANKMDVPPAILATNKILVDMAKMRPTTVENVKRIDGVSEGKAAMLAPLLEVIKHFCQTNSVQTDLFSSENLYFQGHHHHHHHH

For `COc1cc(CN(C(=O)C(c2ccc(-c3ccc(F)c(F)c3)cc2F)n2ncc3ccncc32)[C@@H]2C=CS(=O)(=O)C2)ccn1` (stereo partly drawn) [I-751, N-[(3R)-1,1-dioxo-2,3-dihydro-1lambda6-thiophen-3-yl]-N-[(2-methoxypyridin-4-yl)methyl]-2-{1H-pyrazolo[3,4-c]pyridin-1-yl}-2-{3,3′,4′-trifluoro-[1,1′-biphenyl]-4-yl}acetamide], the pIC50 was 4.30 to 5.00.

On to `O=C(Cn1cc(-c2ccc(F)c(F)c2)cn1)N(Cc1nc(C2CC2(F)F)cs1)C1C=CS(=O)(=O)C1` (stereo not shown) [I-718, N-{[4-(2,2-difluorocyclopropyl)-1,3-thiazol-2-yl]methyl}-2-[4-(3,4-difluorophenyl)-1H-pyrazol-1-yl]-N-(1,1-dioxo-2,3-dihydro-1lambda6-thiophen-3-yl)acetamide], for which the pIC50 is over 6.30.

Take `COc1cc(CN(C(=O)C(c2ccc(-c3ccc(F)c(F)c3)cc2F)n2ncnn2)[C@@H]2C=CS(=O)(=O)C2)ccn1` (stereo partly drawn) [I-731, N-[(3R)-1,1-dioxo-2,3-dihydro-1lambda6-thiophen-3-yl]-N-[(2-methoxypyridin-4-yl)methyl]-2-(2H-1,2,3,4-tetrazol-2-yl)-2-{3,3′,4′-trifluoro-[1,1′-biphenyl]-4-yl}acetamide]: the pIC50 was under 4.30.

On to `COc1cccc(-c2ccc(CC(=O)N(Cc3ccncc3)C3C=CS(=O)(=O)C3)cc2)c1` (stereo not shown) [I-556, N-(1,1-dioxo-2,3-dihydro-1lambda6-thiophen-3-yl)-2-{3′-methoxy-[1,1′-biphenyl]-4-yl}-N-[(pyridin-4-yl)methyl]acetamide], for which the pIC50 is under 4.30.

Turning to `CCc1csc(CN(C(=O)Cc2ccc(S(F)(F)(F)(F)F)cc2)C2C=CS(=O)(=O)C2)n1` (stereo not shown) [I-628, N-(1,1-dioxo-2,3-dihydro-1lambda6-thiophen-3-yl)-N-[(4-ethyl-1,3-thiazol-2-yl)methyl]-2-[4-(pentafluoro-lambda6-sulfanyl)phenyl]acetamide], the pIC50 is over 6.30.

In the case of `CN(C)Cc1cccn1-c1ccc(CC(=O)N(Cc2ccccc2)C2C=CS(=O)(=O)C2)cc1` (stereo not shown) [I-567, N-benzyl-2-(4-{2-[(dimethylamino)methyl]-1H-pyrrol-1-yl}phenyl)-N-(1,1-dioxo-2,3-dihydro-1lambda6-thiophen-3-yl)acetamide], the pIC50 was under 4.30.

Consider `CC(C)(O)c1cc(CN(C(=O)Cc2ccc(-c3cccc(Cl)c3)cc2F)C2C=CS(=O)(=O)C2)ccn1` (stereo not shown) [I-70, 2-{3′-chloro-3-fluoro-[1,1′-biphenyl]-4-yl}-N-(1,1-dioxo-2,3-dihydro-1lambda6-thiophen-3-yl)-N-{[2-(2-hydroxypropan-2-yl)pyridin-4-yl]methyl}acetamide], for which the pIC50 is over 6.30.

With `O=C(CN1CCC(c2ccccc2)CC1)N(Cc1ccncc1)C1C=CS(=O)(=O)C1` (stereo not shown) [I-571, N-(1,1-dioxo-2,3-dihydro-1lambda6-thiophen-3-yl)-2-(4-phenylpiperidin-1-yl)-N-[(pyridin-4-yl)methyl]acetamide], the pIC50 was under 4.30.

For `O=C(Cn1cc(-c2ccccc2)cn1)N(Cc1ccncc1)C1C=CS(=O)(=O)C1` (single isomer, unassigned) [I-281], the pIC50 was 4.30 to 5.00.

`COCc1cccn1-c1ccc(CC(=O)N(Cc2ccccc2)C2C=CS(=O)(=O)C2)cc1` (stereo not shown) [I-568, N-benzyl-N-(1,1-dioxo-2,3-dihydro-1lambda6-thiophen-3-yl)-2-{4-[2-(methoxymethyl)-1H-pyrrol-1-yl]phenyl}acetamide]: the pIC50 was under 4.30.

For `O=C(Cc1ccc(-n2cccc2)cc1)N(c1c[nH]c2ncc(F)cc12)C1C=CS(=O)(=O)C1` (stereo not shown) [I-479, N-(1,1-dioxo-2,3-dihydro-1lambda6-thiophen-3-yl)-N-{5-fluoro-1H-pyrrolo[2,3-b]pyridin-3-yl}-2-[4-(1H-pyrrol-1-yl)phenyl]acetamide], the pIC50 is under 4.30.

Regarding `CC(C)(O)c1cc(CN(C(=O)C2Cc3cc(S(F)(F)(F)(F)F)ccc3O2)[C@@H]2C=CS(=O)(=O)C2)ccn1` (single isomer, unassigned) [I-730], the pIC50 is over 6.30.

`O=C(Cc1ccc2ccccc2c1)N(Cc1ccncc1)C1C=CS(=O)(=O)C1` (stereo not shown) [I-315, N-(1,1-dioxo-2,3-dihydro-1lambda6-thiophen-3-yl)-2-(naphthalen-2-yl)-N-[(pyridin-4-yl)methyl]acetamide]: the pIC50 is 4.30 to 5.00.

For `COc1cc(CN(C(=O)C(C)c2ccc(-n3cccc3)cc2)C2C=CS(=O)(=O)C2)ccn1` (stereo not shown) [I-212, N-(1,1-dioxo-2,3-dihydro-1lambda6-thiophen-3-yl)-N-[(2-methoxypyridin-4-yl)methyl]-2-[4-(1H-pyrrol-1-yl)phenyl]propanamide], the pIC50 is 5.30 to 6.30.

For `C#CCCCC(=O)N1CCN(Cc2ccc(CN(C(=O)Cc3ccc(-n4cccc4)cc3F)C3C=CS(=O)(=O)C3)cc2)CC1` (stereo not shown) [I-211, N-(1,1-dioxo-2,3-dihydro-1lambda6-thiophen-3-yl)-2-[2-fluoro-4-(1H-pyrrol-1-yl)phenyl]-N-[(4-{[4-(hex-5-ynoyl)piperazin-1-yl]methyl}phenyl)methyl]acetamide], the pIC50 was 5.30 to 6.30.

Consider `Cc1cc(CN(C(=O)Cc2ccc(-n3cccc3)cc2)C2C=CS(=O)(=O)C2)ccn1` (stereo not shown) [I-207, N-(1,1-dioxo-2,3-dihydro-1lambda6-thiophen-3-yl)-N-[(2-methylpyridin-4-yl)methyl]-2-[4-(1H-pyrrol-1-yl)phenyl]acetamide], for which the pIC50 was 5.30 to 6.30.

`O=C(Cc1ccc2ncccc2c1)N(Cc1ccncc1)C1C=CS(=O)(=O)C1` (stereo not shown) [I-514, N-(1,1-dioxo-2,3-dihydro-1lambda6-thiophen-3-yl)-N-[(pyridin-4-yl)methyl]-2-(quinolin-6-yl)acetamide]: the pIC50 is under 4.30.

For `CC(C(=O)N(Cc1ccnc(C(C)(C)O)c1)[C@@H]1C=CS(=O)(=O)C1)n1cc(-c2ccc(C(F)(F)F)cc2)cn1` (single isomer, unassigned) [I-788], the pIC50 is 5.00 to 5.30.

Take `COc1cc(CN(C(=O)Cc2ccc(-c3ccc(F)cc3)cc2)C2C=CS(=O)(=O)C2)on1` (stereo not shown) [I-247, N-(1,1-dioxo-2,3-dihydro-1lambda6-thiophen-3-yl)-2-{4′-fluoro-[1,1′-biphenyl]-4-yl}-N-[(3-methoxy-1,2-oxazol-5-yl)methyl]acetamide]: the pIC50 was 5.00 to 5.30.

Turning to `CNC(=O)C(C(=O)N(Cc1ccnc(OC)c1)[C@@H]1C=CS(=O)(=O)C1)c1ccc(-c2ccc(F)c(F)c2)cc1F` (single isomer, unassigned) [I-693, (2R*)-N′-[(3R)-1,1-dioxo-2,3-dihydro-1lambda6-thiophen-3-yl]-N′-[(2-methoxypyridin-4-yl)methyl]-N-methyl-2-{3,3′,4′-trifluoro-[1,1′-biphenyl]-4-yl}propanediamide], the pIC50 is over 6.30.

For `O=C(Cc1ccc(S(F)(F)(F)(F)F)cc1)N(Cc1ccc(=O)[nH]n1)C1C=CS(=O)(=O)C1` (stereo not shown) [I-817, N-(1,1-dioxo-2,3-dihydro-1lambda6-thiophen-3-yl)-N-[(6-oxo-1,6-dihydropyridazin-3-yl)methyl]-2-[4-(pentafluoro-lambda6-sulfanyl)phenyl]acetamide], the pIC50 is 5.30 to 6.30.

In the case of `O=C(Cc1ccc2c(c1)CCOC2)N(Cc1ccncc1)C1C=CS(=O)(=O)C1` (stereo not shown) [I-630, 2-(3,4-dihydro-1H-2-benzopyran-6-yl)-N-(1,1-dioxo-2,3-dihydro-1lambda6-thiophen-3-yl)-N-[(pyridin-4-yl)methyl]acetamide], the pIC50 is under 4.30.
